Data taken from PubChem BioAssay AID1288 (Columbia University Molecular Screening Center, 2008).
Calls of active or inactive are those of the source. The rule behind the calls is not given here.

assay: E-selectin induction blockers, endothelial cells – imaging, retest plus dose response, cell count, confirmation (AID 1288); conditions: human endothelial cells, TNFa-induced E-selectin, imaging; at 2 µM; stronger effect = higher value;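 note: 0% = stimulated vehicle wells and 100% = unstimulated vehicle wells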

Row | SMILES | inhibition
1 | CCCCn1c2nc3ccccc3nc2c2c(=O)n(-c3ccccc3)cnc21 | -1.49% (inactive)
2 | O=C(Oc1nsnc1N1CCOCC1)N1CCOCC1 | 2.57% (inactive)
3 | CC(C)C(c1nnnn1Cc1ccc2c(c1)OCO2)N1CCN(C)CC1 (stereo not given) | 6.53% (inactive)
4 | O=c1c2ccccc2n2c(-c3cccc(F)c3)nnc2n1Cc1ccccc1 | -8.49% (inactive)
5 | CCOC(=O)c1c(NC(C)=O)sc2c(O)cccc12 | 35.6% (inactive)
6 | CC(C)c1c(O)cc(-c2ccncc2)n(-c2ccc(Cl)cc2)c1=O | 3.17% (inactive)
7 | COc1ccc(C)cc1S(=O)(=O)N(C)CC(=O)N1CCCCC1 | -0.62% (inactive)
8 | CCOC(=O)N1CCN(C(=O)c2ccc(Oc3ccc([N+](=O)[O-])cc3)cc2)CC1 | 18.9% (inactive)
9 | COc1ccc(C(=O)NCCNC(C)=O)cc1S(=O)(=O)NCc1ccc(Cl)cc1 | 14.8% (inactive)
10 | CCN1CCN(Cc2cc(OC)c(OC)cc2[N+](=O)[O-])CC1 | 12.6% (inactive)
11 | CCCN1CCc2[nH]c(=S)[nH]c(=O)c2C1 | -2.07% (inactive)
12 | O=C(Nc1nc(-c2ccncc2)cs1)c1ccc(S(=O)(=O)N2CCOCC2)cc1 | 1.3% (inactive)
13 | Cc1cc([N+](=O)[O-])nn1CCCC(=O)Nc1sc2c(c1C(N)=O)CCC(C)C2 (stereo not given) | 1.33% (inactive)
14 | Cn1c(=O)[nH]c(=O)c2c1nc(N1CCCCC1)n2CCCSc1nnnn1-c1ccccc1 | 10.1% (inactive)
15 | Nc1ccc(Br)cc1-c1nc2ccccc2[nH]c1=O | -8.67% (inactive)
16 | COc1ccc(Br)cc1C(=O)O | -3.94% (inactive)
17 | CCOc1cc2[nH]c(=O)n(CCCN3CCCC3=O)c(=O)c2cc1OCC | 17% (inactive)
18 | Cn1c(=O)[nH]c(=O)c2c1nc(CN1CCN(Cc3ccccc3)CC1)n2CC(N)=O | 8.32% (inactive)
19 | Cc1ccccc1-n1ccnc1SCC(=O)O | 23% (inactive)
20 | Oc1ccccc1Nc1nc(NCC2CCCO2)c2ccccc2n1 (stereo not given) | 5.39% (inactive)
21 | O=S(=O)(NCC(c1ccco1)N1CCN(c2ccccc2)CC1)c1ccc(F)cc1 (stereo not given) | 6.17% (inactive)
22 | O=C(C1CCN(c2nc3ccc(Br)cc3s2)CC1)N1CCC2(CC1)OCCO2 | 5.07% (inactive)
23 | CCC(=O)Nc1nnc(-c2ccccn2)o1 | 14.7% (inactive)
24 | Cc1ccccc1Cn1ccc(NC(=O)c2cnn3c2NC(c2ccccc2)CC3C(F)(F)F)n1 (stereo not given) | 2.9% (inactive)
25 | CCCCCCOC(=O)C1=C(C)NC(=O)NC1c1ccc(O)cc1 (stereo not given) | 13.9% (inactive)

Row | SMILES | inhibition
26 | CCCSc1nc(C)c(-c2csc(C(C#N)=C3CCCC3)n2)cc1C#N | 8.04% (inactive)
27 | CCOc1ccc(NCc2nc3ccccc3n2CCOc2ccccc2)cc1 | 11.6% (inactive)
28 | O=C(CN(CC1CCCO1)C(=O)CCC(=O)Nc1nccs1)NCc1ccc2c(c1)OCO2 (stereo not given) | 33.3% (inactive)
29 | C/C(=N\Nc1cccc2cccnc12)c1ccccc1O | -0.47% (inactive)
30 | COc1ccc(S(=O)(=O)Nc2cccc(S(=O)(=O)N3CCCCCC3)c2)cc1 | 31% (inactive)
31 | CS(=O)(=O)N1CCc2cc(-c3csc(NC(=O)Cc4cccs4)n3)ccc21 | 11.6% (inactive)
32 | CCn1c(SCC(=O)NCc2ccco2)nnc1-c1ccc(N)cc1 | 10.3% (inactive)
33 | Cc1nn(-c2ccccc2)c2sc(C(=O)O)cc12 | 2.23% (inactive)
34 | Cc1ccc2cc(C#N)c(N3CCCC3)nc2c1C | 8.05% (inactive)
35 | CC(C)C(=O)N(c1ccc(F)cc1)C1C=CS(=O)(=O)C1 (stereo not given) | -2.25% (inactive)
36 | CCCn1c(SCC(=O)N2c3ccccc3Sc3ccccc32)nc2c1c(=O)n(C)c(=O)n2C | -8.34% (inactive)
37 | C/C(=N\Nc1cc(-c2ccccc2)nc(-c2ccccc2)n1)c1ccc(O)c(C)c1 | 5.91% (inactive)
38 | COc1ccc(S(=O)(=O)N(CC(N)=O)C2CCCCC2)cc1Cl | 5.95% (inactive)
39 | O=C(CO/N=C/c1ccccc1OC(F)F)NCc1cccs1 | 1.25% (inactive)
40 | CCCC(=O)C1=C(O)C(C(=O)OC)C(C)(C)CC1=Nc1ccc(N)cc1 (stereo not given) | 10.6% (inactive)
41 | COCCCNC(=O)COc1ccc(S(=O)(=O)NCc2ccccc2)cc1Cl | 7.46% (inactive)
42 | Cn1nnnc1SCc1nnc(-c2ccc(Cl)cc2)o1 | 6.53% (inactive)
43 | CC(C)CCNC(=O)C1CCN(c2nc3ccccc3o2)CC1 | 12.3% (inactive)
44 | COc1ccc(N(CC(=O)Nc2ccc3c(c2)OCO3)S(C)(=O)=O)c(OC)c1 | -1.1% (inactive)
45 | COc1cccc(C(C)NC(=O)c2c(F)cccc2Cl)c1 (stereo not given) | 21.5% (inactive)
46 | O=C(CSc1nnc(CNc2ccc(F)cc2)o1)N1CCCc2ccccc21 | 2.29% (inactive)
47 | Cc1cc(N2CCCCC2)nc(NCc2ccccc2)n1 | 36.1% (inactive)
48 | O=C(O)C(=O)/C(=C\c1ccccc1)c1ccc2ccccc2n1 | 23.7% (inactive)
49 | CC(NC(=O)COc1cccc(Br)c1)C(=O)O (stereo not given) | 24.6% (inactive)
50 | COc1ccc(CCNC(=O)CSc2nc(-c3ccco3)cc(C(F)(F)F)n2)cc1OC | 18.9% (inactive)

Row | SMILES | inhibition
51 | CCNC(=O)CN(CCc1ccccc1)S(C)(=O)=O | 7.43% (inactive)
52 | COc1ccc(N=C2SCC(=O)N2c2ccc(OC)cc2)cc1 | -8.28% (inactive)
53 | Cc1ccc(/C=c2\sc3n(c2=O)CN(c2cccc(Br)c2)CN=3)o1 | 3.58% (inactive)
54 | Cc1c(Cl)cnc(NC(=O)COC(=O)c2nn(C)c(=O)c3ccccc23)c1Cl | 12.5% (inactive)
55 | CCN(CC)c1ccc(NC(=O)C2CC3CCC2C3)cc1 (stereo not given) | 24.7% (inactive)
56 | O=C(O)C1C2C=CC(C2)C1C(=O)NCCCc1ccccc1 (stereo not given) | 3.67% (inactive)
57 | CN=C(C)C1=C(O)C(C(=O)OC)C(C)(C)CC1=O (stereo not given) | -0.09% (inactive)
58 | CC(=O)c1ccc(NC(=O)Nc2ccc([N+](=O)[O-])cc2C)cc1 | 48% (inactive)
59 | COc1ccccc1N1CCN(c2cc(N3CCCC3)nc(C)n2)CC1 | -3.57% (inactive)
60 | O=C(CSc1ncn(-c2ccccc2)n1)Nc1ccc2c(c1)OCCO2 | 14.5% (inactive)
61 | Cc1cc([N+](=O)[O-])nn1CC(=O)Nc1sc2c(c1C(N)=O)CCCC2 | 18.3% (inactive)
62 | CCCc1c(O)c2ccccc2[nH]c1=O | 0.12% (inactive)
63 | O=C1CC(c2ccccc2)n2nc(NC(=O)C3CCCO3)nc2N1 (stereo not given) | -5.55% (inactive)
64 | O=C(Cc1cccs1)NNC(=S)NC(=O)c1ccc(F)c(F)c1 | 6.92% (inactive)
65 | CCc1n[nH]c2c1C(=O)CC(C)(C)C2 | 18% (inactive)
66 | Cc1c(NC(=O)c2c(N)n(-c3ccccc3)c3nc4ccccc4nc23)c(=O)n(-c2ccccc2)n1C | 4.61% (inactive)
67 | Cc1cc(NC(=O)CSc2nnc(Cc3ccccc3)n2C)no1 | 1.71% (inactive)
68 | Cc1oc2c(C)c(O)ccc2c(=O)c1-c1cnn(-c2ccccc2)c1 | -7.41% (inactive)
69 | CN(C)S(=O)(=O)c1cc(NC(=O)CN2C(=O)NC3(CCCc4ccccc43)C2=O)ccc1Cl (stereo not given) | 4.67% (inactive)
70 | COc1cc(S(=O)(=O)N(Cc2ccccn2)Cc2ccco2)ccc1-n1cnnn1 | 2% (inactive)
71 | COc1ccc(OCC2CNC(=O)O2)cc1 (stereo not given) | 0.97% (inactive)
72 | COC(=O)c1cc2sc(Cl)cc2n1CC(=O)Nc1cccc(SC)c1 | 2.57% (inactive)
73 | Cc1cc(C(=O)CN2C(=O)CCC2=O)c(C)n1Cc1ccccc1 | 13.3% (inactive)
74 | Cn1c(CCNC(=O)C2CCCCC2)nc2cc(NC(=O)c3cccs3)ccc21 | 3.87% (inactive)
75 | O=C(N/N=C/c1ccc([N+](=O)[O-])s1)c1cccnc1 | 44.3% (inactive)

Row | SMILES | inhibition
76 | NC(=O)C1CCCN(C(=S)Nc2cccc3ccccc23)C1 (stereo not given) | 9.37% (inactive)
77 | COc1ccc2cc(CN(CCO)C(=O)c3ccccc3F)c(=O)[nH]c2c1 | 12.6% (inactive)
78 | COc1ccc(/C(O)=C2/C(=O)C(=O)N(Cc3cccnc3)C2c2ccncc2)cc1F (stereo not given) | 19.1% (inactive)
79 | CCOC(=O)c1c(NC(=O)CSc2nnc(-c3ccccc3)n2CC)sc(C(C)=O)c1C | 8.92% (inactive)
80 | COCCCNC(=O)CN1C(=O)c2ccccc2C1=O | 5.47% (inactive)
81 | CCN(CC)c1ccc(C2C(C(=O)OCCOC)=C(C)NC3=C2C(=O)CC(C)(C)C3)cc1 (stereo not given) | -4.2% (inactive)
82 | COCCn1c(SCC(=O)c2ccc(Cl)cc2)nnc1C(C)C | -5.2% (inactive)
83 | COc1ccc(C(=O)NCC(C)C)c(OC)c1 | 24.1% (inactive)
84 | CCC(Sc1nc2c(c(=O)n1CC)SC(C)C2)C(=O)OC (stereo not given) | 6.81% (inactive)
85 | O=C(NCN1C(=O)C2C3C=CC(C3)C2C1=O)Nc1nncs1 (stereo not given) | 1.86% (inactive)
86 | COc1cc(CNCc2ccco2)ccc1OCc1ccccc1 | 11.6% (inactive)
87 | O=c1cc(-c2ccc(F)cc2)oc2ccccc12 | 0.15% (inactive)
88 | CC(OC(=O)c1ccco1)C(=O)NC1CCCCC1 (stereo not given) | 18.2% (inactive)
89 | CC1(C)NC(=O)N(CC(O)COc2cc3ccccc3cc2C(=O)N2CCCCC2)C1=O (stereo not given) | 7% (inactive)
90 | Cc1cccc(OCCCC(=O)O)c1 | 4.01% (inactive)
91 | CCc1ccc(CC2S/C(=C(\C#N)C(C)=O)NC2=O)cc1 (stereo not given) | 5.01% (inactive)
92 | O=C(C1CCCO1)N1CCN(c2c3c(nc4cc(-c5ccc(F)cc5)nn24)CCC3)CC1 (stereo not given) | 5.9% (inactive)
93 | Nc1cccc(-n2nncc2-c2ccc(Cl)cc2)c1 | 18.2% (inactive)
94 | N/C(=N\c1nc(CSc2ccc(Cl)cc2)cc(=O)[nH]1)Nc1cccc2ccccc12 | 6.58% (inactive)
95 | COc1ccc(C2C(C(=O)Nc3cccnc3)=C(C)Nc3nc(-c4cccs4)nn32)cc1 (stereo not given) | 7.57% (inactive)
96 | CCc1cccc(CC)c1NC(=O)COC(=O)c1cccc(-c2ccc(OC(C)=O)cc2)c1 | 1.97% (inactive)
97 | COc1cc(NC2c3ncccc3C(=O)N2Cc2ccco2)cc(OC)c1 (stereo not given) | 7.75% (inactive)
98 | Cc1cccc(C)c1NC(=O)CN(C)C(=O)/C=C/c1cccs1 | 1.62% (inactive)
99 | O=C(NCc1nc(-c2ccccc2)no1)c1ccc2c(c1)OCO2 | 24.1% (inactive)
100 | COc1ccc(C2(CNC(=O)c3cc([N+](=O)[O-])cc([N+](=O)[O-])c3)CCCC2)cc1OC | 4.01% (inactive)
